According to patent publication US7056498B2, “Composition containing aminophenol derivative, use thereof, and process for dissolving aminophenol derivative” (L'Oreal, priority 1999, dated 2006):

Legend:
Type in all cases: physicochemical
[1] = Amount of aminophenol derivative dissolved in various solubilizing agents
Method: The amount of aminophenol derivative (N-ethyloxyearbonyl-4-para-aminophenol, or EPAP, and N-cholesteryloxyearbonyl-4-para-aminophenol, or CPAP) which can be dissolved in various solubilizing agents, at 60° C., was compared in Tables 1 and 2 below.

[2] = as above; settings: in caprylic/capric triglycerides, at room temperature
[3] = Storage stability of the compositions for two months (viscosity, colour, odour, HPLC content, crystals); settings: two months at room temperature and at 45° C.
Method: After storage for two months at room temperature and at 45° C., no change in the viscosity or colour of the composition and no release of odour were observed.

[4] = in apricot kernel oil, at 60° C.
[5] = in mixture of oxyethylenated (26 EO) oxypropylenated (26 PO) butyl alcohol and oxyethylenated (40 EO) hydrogenated castor oil
[6] = in oxyethylenated (7 EO) hydrogenated castor oil, at 60° C.
[7] = in oxyethylenated (20 EO) oxypropylenated (5 PO) cetyl alcohol, at 60° C.
[8] = in oxyethylenated (20 EO) sorbitan monostearate, at 60° C.
[9] = in oxyethylenated (40 EO) hydrogenated castor oil, at 60° C.
[10] = in oxyethylenated (60 EO) hydrogenated castor oil, at 60° C.
[11] = in composition of Example 1 (fluid emulsion)
[12] = in composition of Example 2 (fluid emulsion)
[13] = in composition of Example 3 (bleaching fluid)

SMILES | Amount dissolved ([1]; in Laureth-4, at 60° C.) | Amount dissolved [1, 4] | Amount dissolved ([1]; in hexyldecanol, at 60° C.) | Amount dissolved ([1]; in mineral oil, at 60° C.) | Amount dissolved [1, 5] | Amount dissolved ([1]; in octyldodecanol, at 60° C.) | Amount dissolved [1, 6] | Amount dissolved [1, 7] | Amount dissolved [1, 8] | Amount dissolved [1, 9] | Amount dissolved [1, 10] | also measured
CCOC(=O)Nc1ccc(O)cc1 [EPAP, N-ethyloxycarbonyl-4-para-aminophenol] | 25% | insoluble | insoluble | insoluble | 20% | insoluble | 16.6% | 16.5% | 50% | 16.5% | 16.5% | Amount dissolved ([1]; in caprylic/capric triglycerides, 80° C.): 4.7% (80° C.);; Amount dissolved ([1]; in mixture of oxyethylenated (9 EO) tridecyl alcohol and oxyethylenated (40 EO) hydrogenated castor oil): 25%; Recrystallization after dissolution [2]: recrystallizes; Decrease in compound content, as determined by HPLC [3, 11]: no decrease; Formation of crystals of the compound [3, 11]: no formation of crystals
CC(C)CCC[C@@H](C)[C@H]1CC[C@H]2[C@@H]3CC=C4C[C@@H](OC(=O)Nc5ccc(O)cc5)CC[C@]4(C)[C@H]3CC[C@]12C [CPAP, N-cholesteryloxycarbonyl-4-para-aminophenol] | 4.8% | insoluble | insoluble | insoluble | 14.2% | 0.5% | 12.5% | 14.2% | 14.2% | 16.5% | 16.5% | Amount dissolved ([1]; in Laureth-23, at 60° C.): 4.8%; Amount dissolved ([1]; in caprylic/capric triglycerides, at 60° C.): 0.5%; Decrease in compound content, as determined by HPLC [3, 12]: no decrease; Formation of crystals of the compound [3, 12]: no formation of crystals; Decrease in compound content, as determined by HPLC [3, 13]: no decrease; Formation of crystals of the compound [3, 13]: no formation of crystals
